Values of other authors, collected in paper PMC8657489, “Identification of VEGF Signaling Inhibition-Induced Glomerular Injury in Rats through Site-Specific Urinary Biomarkers” (International Journal of Molecular Sciences, 2021).

Assays:
[1] = tested on: glomerular endothelial cells and podocytes; set-up: method as in PMID 17726104; settings: rats
patients [2] = settings: human, in vivo
patients [3] = tested on: patients; set-up: method as in PMID 24574832; settings: patients receiving Sunitinib

In the case of COc1cc2c(Nc3ccc(Br)cc3F)ncnc2cc1OCC1CCN(C)CC1 [vandetanib], the glomerular morphological changes [1] is listed as “not only the loss of fenestration in glomerular endothelial cells, but also morphological changes in podocytes”.

For “Bevacizumab: monoclonal antibody against VEGF-A, also known as Avastin”, the “patients who developed proteinuria” value (patients [2]) is given as 21~64% and the “proteinuria considered severe cases (grade 3–4)” value (patients [2]) is given as 2.1–11.9%.

For CCN(CC)CCNC(=O)c1c(C)[nH]c(/C=C2\C(=O)Nc3ccc(F)cc32)c1C [Sunitinib], the renal adverse effects (patients [3]) is listed as “proteinuria and renal insufficiency were reported”.
